Laboratory results as given in patent US12725435B2, “FIM-CNN for detection of viable cells and/or particulate impurities” (Coriolis Pharma Research GmbH, priority 2021, dated 2026).

Key:
Jurkat cells [1] = experiment: Annexin V-FITC / PI fluorescence-based flow cytometry assay (apoptosis, necrosis)
Experimental: (§1) Cell apoptosis and necrosis were determined by imaging flow cytometry after labelling of the cells with FITC and PI. Sample preparation was carried out according to the Dead Cell Apoptosis Kit instructions. After incubation for 15 min in the dark at room temperature samples were kept on wet ice until analysis. After adjusting the excitation power of the FlowSight imaging flow cytometer to 4 mW, the same instrument settings as described in for the calcein-AM assay above was used. Brightfield as well as fluorescence images in channels 02 (532/55 nm) for FITC and channel 4 (610/30 nm) for PI were recorded. Appropriate morphological filters based on mean intensity, area, aspect ratio and modulation from channel 09 were applied to discriminate between single cells and cell aggregates or debris particles. Once single cells were selected based on brightfield images, mean intensity values from channel 02 (fluorescence) were plotted against the particle area (erode mask) where the positively stained cells were classified as viable.
For selection of necrotic cells, two separate methods were used to induce cell necrosis. […] Images of debris particles were manually selected from measured suspensions of cells submitted to vortexing for approximately 2 min or two freeze-thaw cycles (−140° C.-37° C.).

[2] = calcein-AM assay of cell viability (imaging flow cytometry); format: cell-based; conditions: human, Jurkat cells; irrespective of DMSO content (2.5%, 5%, 10% v/v) and time point (T0, freeze-thaw, control)
Experimental: Freeze-thaw stress. DMSO, cooled on wet ice, was slowly added to cell suspensions (placed on wet ice) to reach a target concentration 1%, 2.5%, 5% and 10% (v/v) at a cell concentration of 1×10^6 cells/ml. Further, five 1-ml aliquots were prepared in 1.8-ml Nalgene cryovials, which were submitted to freezing at −18° C. for 3 hours. This amount of time was sufficient for complete freezing of the aliquots. Prior to analysis, the samples were thawed for 2 min at 37° C., pooled and washed with fresh RPMI medium. Control samples were stored at 20° C. for 3 hours and were otherwise treated identically as the freeze-thawed samples.
Imaging flow cytometry. To assess cell viability based on cell metabolism, imaging flow cytometry was used in combination with the membrane-permeable dye calcein-AM (calcein-AM assay), at a final concentration of 6.3 nM in the sample to be analyzed. […] Subsequently, samples were analyzed by using an Amnis FlowSight imaging flow cytometer (Luminex, Seattle, USA) and data was analyzed using IDEAS 6.2.183 (Luminex, Seattle, USA) image analysis software. […] The side scatter laser was set to 10 mW and the 488 nm fluorescence excitation laser was set to 12 mW. Images of the calcein-AM stained cells were recorded in channel 02 (532/55 nm). […]

Jurkat cells [3] = experiment: FIM-CNN (FlowCam) cell counts and viability after forced degradation; format: cell-based
Experimental: Freeze-thaw stress. […] Further, five 1-ml aliquots were prepared in 1.8-ml Nalgene cryovials, which were submitted to freezing at −18° C. for 3 hours. This amount of time was sufficient for complete freezing of the aliquots. Prior to analysis, the samples were thawed for 2 min at 37° C., pooled and washed with fresh RPMI medium. Control samples were stored at 20° C. for 3 hours and were otherwise treated identically as the freeze-thawed samples. Shaking stress. […] The cryovials were submitted to shaking by constant horizontal agitation at 185 rpm at 25° C. by using an IC 4000 shaker (IKA, Germany). Analysis of cell suspensions of pooled cell aliquots was performed following 3 hours of shaking. Control samples were stored statically and protected from light at 25° C. in cryovials, and subsequently pooled. Flow imaging microscopy (FlowCam, FIM). Cells (viable and necrotic) and debris particles were quantified by using a FlowCam 8100 (Fluid Imaging Technologies, Scarborough, USA) equipped with a 50-μflow cell. […] In total, a sample volume of 140 μL was measured with an efficiency of approximately 63% (i.e., the imaged sample volume was ca. 87 μL). Particles imaged within the flow cell were detected with intensity thresholds of 12 for light and dark pixels. […] Collected images were not sorted by using any morphological filters and samples were measured in triplicate, unless otherwise stated. Image analysis using convolutional neural networks. Particle images captured by using FlowCam were analyzed by using convolutional neural networks (CNN). […] Briefly, the VGG-19 network using rectified linear unit activation functions, punctuated with max-pooling and dropout layers, was pre-trained on the ImageNet dataset (http://image-netorg). The re-training of the network was performed with the first ten layers frozen in order to save computation time and improve accuracy of the model by preserving its pre-learned feature recognition capabilities. For fine-tuning the dataset was split into an 8:1:1 ratio for training, validation and testing, respectively. […]

Jurkat cells [4] = experiment: in vitro
Description: (§2) Generation of particle images for population discrimination. The CNN was retrained on manually labelled images (4,000-4,500) of each of the three populations: viable cells, necrotic cells and debris particles. […] For selection of necrotic cells, two separate methods were used to induce cell necrosis. […] In order to further define image populations of viable and necrotic cells for the network fine-tuning, morphological parameters, such as aspect ratio, circle fit, convexity, sigma intensity and symmetry, of the two populations were used. Only particles (cells) of morphological parameter values falling between the 10th and 90th percentile of the manually selected population as viable and necrotic cells were taken for input to the training of the model. Images of debris particles were manually selected from measured suspensions of cells submitted to vortexing for approximately 2 min or two freeze-thaw cycles (−140° C.-37° C.).
as §1

in vitro = conditions: human
Description: as §2, §1

[5] = staurosporin 1 μM to 500.000 cells/mL, Annexin V-FITC & PI double staining
[6] = cell suspensions frozen with 2.5% (v/v) DMSO

CN[C@@H]1C[C@H]2O[C@@](C)([C@@H]1OC)n1c3ccccc3c3c4c(c5c6ccccc6n2c5c31)C(=O)NC4 [staurosporin]
necrotic cells (Jurkat cells [1]; [5]): around 6%
viable cells (Jurkat cells [1]; [5]): ~ 2%

C[S+](C)[O-] [DMSO, dimethyl sulfoxide]
viability [2]: 85 to 90%
reduction of cell counts (Jurkat cells [3]; 0% and 1% (v/v) DMSO, one freeze-thaw cycle (−18° C. 3 hours, thawing 2 min at 37° C.)): > 98%
losses in viability (FIM-CNN assay) (Jurkat cells [3]; [6]): ca. 20%
toxic effects of DMSO (FIM) (Jurkat cells [3]; exposure of 3 hours at RT, 10% (v/v)): loss of cell viability
increase in apoptotic cell content (Jurkat cells [1]; human, 3 h): ~2 fold
toxic effects of DMSO (PI assay) (Jurkat cells [4]): loss of cell viability
drop in cell viability (PI assay) (Jurkat cells [4]; 5% and 10% (v/v) DMSO, freeze-thawed and control samples compared to T0): ca. 10%
losses in viability (PI assay) (Jurkat cells [4]; [6]): ca. 20%

CCO [ethanol, reference compound]
viability at 90 min, 10 % (v/v) (in vitro): 12.8%
